Reference: patent US12649727B2, “EFGR inhibitor, preparation method therefor and application thereof” (Abbisko Therapeutics Co., Ltd, priority 2020, dated 2026)

Key:
Type in all cases: cell-based
A431 (EGFR-WT) = experiment: Proliferation experiment, A431 cell line (CellTiter-Glo); details: Homo sapiens, A-431; A431 cells, cultured for 72 hrs with compound, CTG analysis
Method: [The procedure below names another cell line; the source lists this cell line under the same test.] (§1) Proliferation Experiment of Ba/F3 Cell Line
(§2) (I) Reagents and Materials
(§3) • Fetal bovine serum FBS (GBICO, Cat #10099-141); • CellTiter-Glo® luminescent cell viability assay kit (Promega, Cat #G7572); • Black transparent flat-bottom 96 well plate (Corning®, Cat #3603). (II) Instruments • SpectraMax multi-label microplate reader MD, 2104-0010A; • Carbon dioxide incubator, Thermo Scientific 3100 series; • Biological safety cabinet, Thermo Scientific, 1300 series model A2; • Inverted microscope, Olympus, CKX41SF; • Siemens refrigerator KK25E76TI. (III) Cell Lines and Culture Conditions
(§4) (IV) Experimental Procedures 1. Cell Culture and Inoculation: • (1) Cells in the logarithmic growth phase were harvested and counted using a […]. Cell viability was detected by Trypan Blue Dye Exclusion Method to ensure cell viability above 90%. • (2) The cell concentration was adjusted to reach a desired final density; 90 μL of cell suspension was added to the 96-well plate. • (3) The cells were incubated overnight in the 96-well plate at 37° C., 5% CO2 and at 95% humidity.
(§5) 2. T0 Reference Data: • (1) 10 μL PBS was added to each well of the TO plate containing the cells. • (2) The CTG reagent was thawed and the cell plate was equilibrated to room temperature for 30 min. • (3) An equal volume of CTG solution was added to each well. • (4) The cells were lysed by shaking on an orbital shaker for 5 min. • (5) The cell plate was left at room temperature for 20 min to stabilize the luminescence signal. • (6) The fluorescence signal values of TO were read. 3. Dilution and Addition of Compounds • (1) According to the compound information table, a corresponding volume of DMSO was added to the corresponding compound powder to prepare a 10 mM stock solution. • (2) A 1000-fold, 3.16-fold-diluted compound solution was prepared. • (3) The 1000× diluted compound solution was diluted 100-fold with PBS to prepare a 10-fold compound solution with a maximum concentration of […], including 9 concentrations, with 3.16-fold dilution, and 10 μL of the medicament solution was added to each well of the 96-well plate to seed the cells. Triplicate wells were set for each compound concentration, with a final concentration of DMSO being 0.1%. • (4) The cells were placed in the 96-well plate filled with the medicament at 37° C., 5% CO2 and at 95% humidity, and cultured for 72 hrs before CTG analysis. 4. Fluorescence Signal Reading • (1) The CTG reagent was thawed and the cell plate was equilibrated to room temperature for 30 min. • (2) An equal volume of CTG solution was added to each well. • (3) The cells were lysed by shaking on an orbital shaker for 5 min. • (4) The cell plate was left at room temperature for 20 min to stabilize the fluorescence signal. • (5) The fluorescence values were read. 5. Data Processing
(§6) Data were analyzed using GraphPad Prism 7.0 software and fitted data were regressed using non-linear S-curves to obtain dose-response curves from which IC50 values (in nM) were calculated.

[1] = biological target: Ba/F3 EGFR-D770-N771ins_SVD (Homo sapiens, UniProt P00533, DUP768-770, cells depend on it); experiment: Proliferation experiment of Ba/F3 cell line, EGFR-D770-N771ins_SVD (CellTiter-Glo); details: cultured for 72 hrs with compound, CTG analysis, read-out: Ba/F3 EGFR-D770-N771ins_SVD IC50
Sequence of Ba/F3 EGFR-D770-N771ins_SVD (P00533 with tags, fused parts or gaps DUP768-770): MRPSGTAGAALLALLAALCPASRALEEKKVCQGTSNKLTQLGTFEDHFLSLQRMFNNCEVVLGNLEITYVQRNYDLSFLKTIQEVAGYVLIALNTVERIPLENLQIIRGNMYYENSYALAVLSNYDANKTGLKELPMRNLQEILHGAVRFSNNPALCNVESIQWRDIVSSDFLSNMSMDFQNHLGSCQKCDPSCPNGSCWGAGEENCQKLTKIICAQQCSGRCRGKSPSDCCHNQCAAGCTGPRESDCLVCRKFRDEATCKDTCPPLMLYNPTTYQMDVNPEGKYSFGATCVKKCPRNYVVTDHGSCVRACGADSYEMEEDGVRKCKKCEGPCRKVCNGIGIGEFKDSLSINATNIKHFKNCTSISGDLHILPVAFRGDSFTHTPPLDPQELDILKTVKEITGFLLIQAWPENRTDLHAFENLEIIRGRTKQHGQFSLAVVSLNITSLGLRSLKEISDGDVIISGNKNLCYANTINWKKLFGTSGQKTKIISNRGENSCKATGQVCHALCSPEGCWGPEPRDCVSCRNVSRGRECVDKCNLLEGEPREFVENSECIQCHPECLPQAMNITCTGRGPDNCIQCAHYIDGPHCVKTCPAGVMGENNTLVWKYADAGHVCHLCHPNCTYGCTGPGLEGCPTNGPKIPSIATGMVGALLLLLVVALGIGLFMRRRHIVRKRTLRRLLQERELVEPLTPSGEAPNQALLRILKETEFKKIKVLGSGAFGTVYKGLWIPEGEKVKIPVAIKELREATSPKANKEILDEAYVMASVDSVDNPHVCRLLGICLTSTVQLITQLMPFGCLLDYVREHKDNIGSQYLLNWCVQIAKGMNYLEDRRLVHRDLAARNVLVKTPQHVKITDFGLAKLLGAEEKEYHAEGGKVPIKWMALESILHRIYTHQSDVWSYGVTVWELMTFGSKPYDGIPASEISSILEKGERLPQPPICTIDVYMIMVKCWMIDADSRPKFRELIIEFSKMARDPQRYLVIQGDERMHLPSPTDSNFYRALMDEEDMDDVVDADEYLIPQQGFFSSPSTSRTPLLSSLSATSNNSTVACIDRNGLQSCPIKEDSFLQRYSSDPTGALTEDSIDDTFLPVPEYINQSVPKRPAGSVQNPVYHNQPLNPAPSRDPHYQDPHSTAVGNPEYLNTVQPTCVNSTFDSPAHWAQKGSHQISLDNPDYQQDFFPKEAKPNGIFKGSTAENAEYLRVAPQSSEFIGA
Method: as §1, §2, §3, §4, §5, §6

[2] = biological target: Ba/F3 EGFR-V769_D770insASV (Homo sapiens, UniProt P00533, DUP767-769, cells depend on it); experiment: Proliferation experiment of Ba/F3 cell line, EGFR-V769_D770insASV (CellTiter-Glo); details: cultured for 72 hrs with compound, CTG analysis, read-out: Ba/F3 EGFR-V769_D770insASV IC50
Sequence of Ba/F3 EGFR-V769_D770insASV (P00533 with tags, fused parts or gaps DUP767-769): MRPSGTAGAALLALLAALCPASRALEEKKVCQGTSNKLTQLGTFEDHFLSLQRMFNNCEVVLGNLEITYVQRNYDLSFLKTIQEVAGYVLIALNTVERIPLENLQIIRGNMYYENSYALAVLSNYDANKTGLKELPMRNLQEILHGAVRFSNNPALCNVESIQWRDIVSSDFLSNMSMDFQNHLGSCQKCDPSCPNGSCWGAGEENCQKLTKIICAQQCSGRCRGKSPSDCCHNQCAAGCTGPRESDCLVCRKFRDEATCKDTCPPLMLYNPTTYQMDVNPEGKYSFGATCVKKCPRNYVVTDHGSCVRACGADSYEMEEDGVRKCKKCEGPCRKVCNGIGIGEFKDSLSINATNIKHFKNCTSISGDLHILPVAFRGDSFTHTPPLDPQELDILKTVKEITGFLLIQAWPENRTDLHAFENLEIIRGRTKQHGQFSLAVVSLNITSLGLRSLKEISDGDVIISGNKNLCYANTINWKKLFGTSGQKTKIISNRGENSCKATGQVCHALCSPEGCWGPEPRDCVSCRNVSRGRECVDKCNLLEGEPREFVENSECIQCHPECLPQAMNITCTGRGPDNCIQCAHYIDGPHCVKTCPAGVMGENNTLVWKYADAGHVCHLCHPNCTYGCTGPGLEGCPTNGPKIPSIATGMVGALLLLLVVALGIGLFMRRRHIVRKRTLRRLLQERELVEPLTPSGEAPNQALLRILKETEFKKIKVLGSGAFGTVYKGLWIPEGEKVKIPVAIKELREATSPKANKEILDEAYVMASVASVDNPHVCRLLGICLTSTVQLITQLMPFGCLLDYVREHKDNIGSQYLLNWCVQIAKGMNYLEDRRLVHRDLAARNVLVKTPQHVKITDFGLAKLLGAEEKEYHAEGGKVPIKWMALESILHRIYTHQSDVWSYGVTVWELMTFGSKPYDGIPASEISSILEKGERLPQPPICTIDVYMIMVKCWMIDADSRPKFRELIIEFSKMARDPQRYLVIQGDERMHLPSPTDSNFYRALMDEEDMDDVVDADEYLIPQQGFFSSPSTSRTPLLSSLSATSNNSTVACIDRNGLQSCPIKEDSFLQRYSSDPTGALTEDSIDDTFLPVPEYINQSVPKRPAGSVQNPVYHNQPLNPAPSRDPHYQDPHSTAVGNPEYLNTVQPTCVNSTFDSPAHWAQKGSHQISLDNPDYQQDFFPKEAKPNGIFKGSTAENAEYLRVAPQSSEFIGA
Method: as §1, §2, §3, §4, §5, §6

SMILES | IC50 (A431 (EGFR-WT)) [nM] | GI50 [1] [nM] | GI50 [2] [nM]
C=CC(=O)Nc1cc2c(Nc3cccc(-c4ccc(F)cc4F)c3)ncnc2cc1OCCCN1CCOCC1 [Example 1, N-(4-((2′,4′-difluoro-[1,1′-biphenyl]-3-yl)amino)-7-(3-morpholinopropoxy)quinazolin-6-yl)acrylamide] | 215 | 11.8 | 42.4
C=CC(=O)Nc1cc2c(Nc3cccc(-c4ccc(F)cc4F)c3)ncnc2cc1OCCN1CCOCC1 [Example 3, N-(4-((2′,4′-difluoro-[1,1′-biphenyl]-3-yl)amino)-7-(2-morpholinoethoxy)quinazolin-6-yl)acrylamide] | 343 | 38.5 | 117
C=CC(=O)Nc1cc2c(Nc3cccc(-c4ccc(F)cc4F)c3)ncnc2cc1OCCN1CCN(C)CC1 [Example 4, N-(4-((2′,4′-difluoro-[1,1′-biphenyl]-3-yl)amino)-7-(2-(4-methylpiperazin-1-yl)ethoxy)quinazolin-6-yl)acrylamide] | – | 52.5 | 175
C=CC(=O)Nc1cc2c(Nc3cccc(-c4c(F)cccc4F)c3)ncnc2cc1OCCCN1CCN(C)CC1 [Example 5, N-(4-((2′,6′-difluoro-[1,1′-biphenyl]-3-yl)amino)-7-(3-(4-methylpiperazin-1-yl)propoxy)quinazolin-6-yl)acrylamide] | 223 | 13 | 20.3
C=CC(=O)Nc1cc2c(Nc3cccc(-c4ccc(F)cc4)c3)ncnc2cc1OCCCN1CCOCC1 [Example 6, N-(4-((4′-fluoro-[1,1′-biphenyl]-3-yl)amino)-7-(3-morpholinopropoxy)quinazolin-6-yl)acrylamide] | 61.4 | 37.5 | 89
C=CC(=O)Nc1cc2c(Nc3cccc(-c4ccc(F)cc4F)c3)ncnc2cc1OCCCN1CCN(C)CC1 [Example 7, N-(4-((2′,4′-difluoro-[1,1′-biphenyl]-3-yl)amino)-7-(3-(4-methylpiperazin-1-yl)propoxy)quinazolin-6-yl)acrylamide] | 238 | 25.2 | 28.4
C=CC(=O)Nc1cc2c(Nc3cccc(-c4ccc(F)cc4F)c3)ncnc2cc1O[C@@H]1CCN(C)C1 [Example 8, (R)-N-(4-((2′,4′-difluoro-[1,1′-biphenyl]-3-yl)amino)-7-((1-methylpyrrolidin-3-yl)oxy)quinazolin-6-yl)acrylamide] | 343 | 88.8 | 178
C=CC(=O)Nc1cc2c(Nc3cc(-c4ccc(F)cc4F)ccc3F)ncnc2cc1OCCCN1CCOCC1 [Example 11, N-(7-(3-morpholinopropoxy)-4-((2′,4,4′-trifluoro-[1,1′-biphenyl]-3-yl)amino)quinazolin-6-yl)acrylamide] | 479 | 29.3 | 119
C=CC(=O)Nc1cc2c(Nc3cccc(-c4ccc(F)cc4F)c3)ncnc2cc1OCCCN1CCC(F)(F)CC1 [Example 14, N-(4-((2′,4′-difluoro-[1,1′-biphenyl]-3-yl)amino)-7-(3-(4,4-difluoropiperidin-1-yl)propoxy)quinazolin-6-yl)acrylamide] | 365 | 34.4 | 221
C=CC(=O)Nc1cc2c(Nc3cccc(-c4ccc(F)cc4F)c3)ncnc2cc1OCCCN1CCC(F)(F)C1 [Example 15, N-(4-((2′,4′-difluoro-[1,1′-biphenyl]-3-yl)amino)-7-(3-(3,3-difluoropyrrolidin-1-yl)propoxy)quinazolin-6-yl)acrylamide] | 498 | 56.1 | 137
C=CC(=O)Nc1cc2c(Nc3cccc(-c4ncc(F)cc4F)c3)ncnc2cc1OCCCN1CCOCC1 [Example 17, N-(4-((3-(3,5-difluoropyridin-2-yl)phenyl)amino)-7-(3-morpholinopropoxy)quinazolin-6-yl)acrylamide] | 518 | 26.1 | 90.9
C=CC(=O)Nc1cc2c(Nc3cccc(-c4ccc(F)cc4F)c3)ncnc2cc1OCCN1CCC(F)(F)C1 [Example 19, N-(4-((2′,4′-difluoro-[1,1′-biphenyl]-3-yl)amino)-7-(2-(3,3-difluoropyrrolidin-1-yl)ethoxy)quinazolin-6-yl)acrylamide] | 597 | 70.5 | 177
C=CC(=O)Nc1cc2c(Nc3cc(-c4ccc(F)cc4F)ccc3F)ncnc2cc1OCCCN1CCN(C)CC1 [Example 20, N-(7-(3-(4-methylpiperazin-1-yl)propoxy)-4-((2′,4,4′-trifluoro-[1,1′-biphenyl]-3-yl)amino)quinazolin-6-yl)acrylamide] | 252 | 36.5 | 53.9
C=CC(=O)Nc1cc2c(Nc3cccc(-c4ccc(F)cc4F)c3)ncnc2cc1OCCN1CCC(F)(F)CC1 [Example 21, N-(4-((2′,4′-difluoro-[1,1′-biphenyl]-3-yl)amino)-7-(2-(4,4-difluoropiperidin-1-yl)ethoxy)quinazolin-6-yl)acrylamide] | 966 | 104 | 240
C=CC(=O)Nc1cc2c(Nc3cccc(-c4c(F)cccc4F)c3)ncnc2cc1OCCCN1CCN(C(C)C)CC1 [Example 22, N-(4-((2′,6′-difluoro-[1,1′-biphenyl]-3-yl)amino)-7-(3-(4-isopropylpiperazin-1-yl)propoxy)quinazolin-6-yl)acrylamide] | 270 | 13.7 | 30.6
C=CC(=O)Nc1cc2c(Nc3cccc(-c4c(F)cc(F)cc4F)c3)ncnc2cc1OCCCN1CCOCC1 [Example 25, N-(7-(3-morpholinopropoxy)-4-((2′,4′,6′-trifluoro-[1,1′-biphenyl]-3-yl)amino)quinazolin-6-yl)acrylamide] | 352 | 33.9 | 106
C=CC(=O)Nc1cc2c(Nc3cccc(-c4c(F)cccc4F)c3)ncnc2cc1OCCN1CCOCC1 [Example 26, N-(4-((2′,6′-difluoro-[1,1′-biphenyl]-3-yl)amino)-7-(2-morpholinoethoxy)quinazolin-6-yl)acrylamide] | 33.4 | 52.1 | 97.4
C=CC(=O)Nc1cc2c(Nc3cccc(-c4c(F)cccc4F)c3)ncnc2cc1OCCCN1CCOCC1 [Example 27, N-(4-((2′,6′-difluoro-[1,1′-biphenyl]-3-yl)amino)-7-(3-morpholinopropoxy)quinazolin-6-yl)acrylamide] | 204 | 15.2 | 44.3
C=CC(=O)Nc1cc2c(Nc3cccc(-n4cccn4)c3)ncnc2cc1OCCN1CCOCC1 [Example 51, N-(4-((3-(1H-pyrazol-1-yl)phenyl)amino)-7-(2-morpholinoethoxy)quinazolin-6-yl)acrylamide] | – | 40.6 | 89.9
C=CC(=O)Nc1cc2c(Nc3cccc(-n4cccn4)c3)ncnc2cc1OCCCN1CCOCC1 [Example 52, N-(4-((3-(1H-pyrazol-1-yl)phenyl)amino)-7-(3-morpholinopropoxy)quinazolin-6-yl)acrylamide] | – | 10.4 | 17.9
C=CC(=O)Nc1cc2c(Nc3cccc(-n4nccn4)c3)ncnc2cc1OCCN1CCOCC1 [Example 54, N-(4-((3-(2H-1,2,3-triazol-2-yl)phenyl)amino)-7-(2-morpholinoethoxy)quinazolin-6-yl)acrylamide] | – | 67.9 | 107
C=CC(=O)Nc1cc2c(Nc3cccc(-n4nccn4)c3)ncnc2cc1OCCCN1CCOCC1 [Example 55, N-(4-((3-(2H-1,2,3-triazol-2-yl)phenyl)amino)-7-(3-morpholinopropoxy)quinazolin-6-yl)acrylamide] | – | 15 | 34.6
